Measured values as given in patent publication EP0973746B1, “SUBSTITUTED 3-CYANO QUINOLINES” (Wyeth Holdings Corporation, priority 1997, dated 1998).
In brackets after ≈: the same amount, converted by molar mass.

Legend:
A431 [1] = experiment: Inhibition of cell growth by incorporation of [3H]-thymidine, A431; type: cell-based, human; details: Homo sapiens, A-431, read-out: IC50 A431
HTB161 = experiment: Inhibition of cancer cell growth as measured by cell number, HTB161; type: cell-based; details: Homo sapiens, 48 h, read-out: IC50 HTB161
A27805 = experiment: Inhibition of cancer cell growth as measured by cell number, A27805; type: cell-based; details: Homo sapiens, 48 h, read-out: IC50 A27805
A2780DDP = experiment: Inhibition of cancer cell growth as measured by cell number, A2780DDP; type: cell-based; details: Homo sapiens, 48 h, read-out: IC50 A2780DDP
MIP = experiment: Inhibition of cancer cell growth as measured by cell number, MIP; type: cell-based; details: Homo sapiens; cell number, Sulforhodamine B, 48 hours exposure; Table 4; read-out: IC50 MIP
SW620 = experiment: Inhibition of cancer cell growth as measured by cell number, SW620; type: cell-based, human; details: Homo sapiens, SW-620, 48 h, read-out: IC50 SW620, cell number, Sulforhodamine B, 48 hours exposure; Table 4;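 further: SW620 was included as a cell line with little or no EGFR or HER2/neu expression, in contrast to receptor-overexpressing lines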
Text: (§1) The cell lines were chosen since they overexpressed epidermal growth factor receptor (EGFR) (i.e. A431) or HER2/neu (SKBR3), or had little to no expression of the these receptors (SW620, LOX, MCF7).

COLO205 = experiment: Inhibition of cancer cell growth as measured by cell number, COLO205; type: cell-based; details: Homo sapiens, COLO 205, 48 h, read-out: IC50 COLO205
CX1 = experiment: Inhibition of cancer cell growth as measured by cell number, CX1; type: cell-based; details: Homo sapiens, CX-1, 48 h, read-out: IC50 CX1
CACO2 = experiment: Inhibition of cancer cell growth as measured by cell number, CACO2; type: cell-based; details: Homo sapiens, Caco-2, 48 h, read-out: IC50 CACO2
HCT15 = experiment: Inhibition of cancer cell growth as measured by cell number, HCT15; type: cell-based; details: Homo sapiens, HCT-15, 48 h, read-out: IC50 HCT15
LS174T = experiment: Inhibition of cancer cell growth as measured by cell number, LS174T; type: cell-based; details: Homo sapiens, 48 h, read-out: IC50 LS174T
SW948 = experiment: Inhibition of cancer cell growth as measured by cell number, SW948; type: cell-based; details: Homo sapiens, SW948, 48 h, read-out: IC50 SW948
CCL228 = experiment: Inhibition of cancer cell growth as measured by cell number, CCL228; type: cell-based; details: Homo sapiens, 48 h, read-out: IC50 CCL228
MCF7 = experiment: Inhibition of cancer cell growth as measured by cell number, MCF7; type: cell-based, human; details: Homo sapiens, MCF7, 48 h, read-out: IC50 MCF7, cell number, Sulforhodamine B, 48 hours exposure; Table 5;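 further: MCF7 was included as a line with little or no EGFR or HER2/neu expression, in contrast to the receptor-overexpressing lines of the panel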
Text: as §1

B7474 = experiment: Inhibition of cancer cell growth as measured by cell number, B7474; type: cell-based; details: Homo sapiens, 48 h, read-out: IC50 B7474
T47D = experiment: Inhibition of cancer cell growth as measured by cell number, T47D; type: cell-based; details: Homo sapiens, 48 h, read-out: IC50 T47D
LX1 = experiment: Inhibition of cancer cell growth as measured by cell number, LX1; type: cell-based; details: Homo sapiens, LX-1, 48 h, read-out: IC50 LX1
A549 = experiment: Inhibition of cancer cell growth as measured by cell number, A549; type: cell-based; details: Homo sapiens, A549, 48 h, read-out: IC50 A549
LOX = experiment: Inhibition of cancer cell growth as measured by cell number, LOX; type: cell-based, human; details: Homo sapiens, LOX, 48 h, read-out: IC50 LOX, cell number, Sulforhodamine B, 48 hours exposure; Table 6;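 further: LOX cells served as a line with low or absent EGFR and HER2/neu expression, in contrast to receptor-overexpressing lines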
Text: as §1

A431 [2] = experiment: Inhibition of cancer cell growth as measured by cell number, A431; type: cell-based, human; details: Homo sapiens, A-431, 48 h, read-out: IC50 A431, cell number, Sulforhodamine B, 48 hours exposure; Table 6;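 further: human A431 line, picked because it overexpresses epidermal growth factor receptor (EGFR)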
Text: as §1

NEC = experiment: Inhibition of cancer cell growth as measured by cell number, NEC; type: cell-based; details: Homo sapiens, 48 h, read-out: IC50 NEC
DU145 = experiment: Inhibition of cancer cell growth as measured by cell number, DU145; type: cell-based; details: Homo sapiens, DU-145, 48 h, read-out: IC50 DU145
PC3 = experiment: Inhibition of cancer cell growth as measured by cell number, PC3; type: cell-based; details: Homo sapiens, PC-3, 48 h, read-out: IC50 PC3
LNCAP = experiment: Inhibition of cancer cell growth as measured by cell number, LNCAP; type: cell-based; details: Homo sapiens, 48 h, read-out: IC50 LNCAP
HL60 = experiment: Inhibition of cancer cell growth as measured by cell number, HL60; type: cell-based; details: Homo sapiens, HL-60, 48 h, read-out: IC50 HL60
CCRF-CFM = experiment: Inhibition of cancer cell growth as measured by cell number, CCRF-CFM; type: cell-based; details: Homo sapiens, 48 h, read-out: IC50 CCRF-CFM
SKBR3 = experiment: Inhibition of cancer cell growth as measured by cell number, SKBR3; type: cell-based, human; details: Homo sapiens, SK-BR-3, 48 h, read-out: IC50 SKBR3, cell number, Sulforhodamine B, 48 hours exposure; Table 7;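 further: SK-BR-3 cells were selected as a line overexpressing HER2/neu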
Text: as §1

[3] = biological target: recombinant human MEK 1 (MAPKK) and recombinant human ERK2 (MAPK); experiment: Mitogen Activated Protein Kinase (MAPK) assay, two component coupled MEK 1 / ERK2; type: biochemical; details: separate entries for the same compound = evaluated more than one time;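 further: MEK 1-activated ERK2 phosphorylates MBP or Myc peptide with 33P-ATP, filter capture and scintillation counting, inhibitor preincubated with ERK2 30 min at 0 °C, inhibition relative to uninhibited control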
Experimental: To evaluate inhibitors of the MAP (mitogen activated protein) kinase a two component coupled standard pharmacological test procedure, which measures phosphorylation of a serine/threonine residue in an appropriate sequence in the substrate in the presence and absence of a putative inhibitor, was used. Recombinant human MEK 1 (MAPKK) was first used to activate recombinant human ERK2 (MAPK) and the activated MAPK (ERK) was incubated with substrate (MBP peptide or MYC peptide) in the presence of ATP, Mg^+2 and radiolabeled ^33P ATP. The phosphorylated peptide was captured on a P 81 phosphocellulose filter (paper filter or embedded in microtiter plate) washed and counted by scintillation methods.
The peptide substrates used in the assay are MBP, peptide substrate ([sequence]), or synthetic Myc substrate, ([sequence]•5 TFA. The recombinant enzymes used were prepared as GST fusion proteins of human ERK 2 and human MEK 1. Inhibitor samples were prepared as 10X stocks in 10% DMSO and an appropriate aliquot was used to deliver either 10 ug/ml for a single point screening dose or 100, 10, 1, and 0.1 uM final concentration for a dose response curve. Final DMSO concentrations were less than or equal to 1%.
The reaction was run as follows in 50 mM Tris kinase buffer, pH 7.4 in a reaction volume of 50 ul. The appropriate volume of kinase buffer and inhibitor sample was added to the tube. Appropriate dilution of enzyme was delivered to give 2-5 ug recombinant MAPK (Erk ) per tube. The inhibitor was incubated with MAPK (Erk) for 30 min at 0 deg. […] Recombinant Mek (MAPKK) ( 0.5-2.5 ug) or fully activated Mek (0.05-0.1 units) was added to activate the Erk and incubated for 30 min at 30° C. […] Samples were incubated at 30°C for 30 minutes and the reaction was stopped by adding 25 µl of ice cold 10 %TCA .After samples were chilled on ice for 30 min, 20 µl of sample was transferred onto P 81 phosphocellulose filter paper or appropriate MTP with embedded P 81 filter. Filter papers or MTP were washed 2 times with a large volume of 1% acetic acid, then 2 times with water. The filters or MTP were briefly air dried before addition of scintillant and samples were counted in the appropriate scintillation counter set up for reading ^33P isotope.
The raw data was captured as cpm. Sample replicates were averaged and corrected for background count. Mean cpm data was tabulated by group and % inhibition by a test compound was calculated as (corrected cpm control- corrected. cpm sample/control) X 100 = % inhibition.

[4] = biological target: epidermal growth factor receptor kinase (Homo sapiens, UniProt P00533); experiment: biochemical
Chain of epidermal growth factor receptor kinase (P00533 25-1210): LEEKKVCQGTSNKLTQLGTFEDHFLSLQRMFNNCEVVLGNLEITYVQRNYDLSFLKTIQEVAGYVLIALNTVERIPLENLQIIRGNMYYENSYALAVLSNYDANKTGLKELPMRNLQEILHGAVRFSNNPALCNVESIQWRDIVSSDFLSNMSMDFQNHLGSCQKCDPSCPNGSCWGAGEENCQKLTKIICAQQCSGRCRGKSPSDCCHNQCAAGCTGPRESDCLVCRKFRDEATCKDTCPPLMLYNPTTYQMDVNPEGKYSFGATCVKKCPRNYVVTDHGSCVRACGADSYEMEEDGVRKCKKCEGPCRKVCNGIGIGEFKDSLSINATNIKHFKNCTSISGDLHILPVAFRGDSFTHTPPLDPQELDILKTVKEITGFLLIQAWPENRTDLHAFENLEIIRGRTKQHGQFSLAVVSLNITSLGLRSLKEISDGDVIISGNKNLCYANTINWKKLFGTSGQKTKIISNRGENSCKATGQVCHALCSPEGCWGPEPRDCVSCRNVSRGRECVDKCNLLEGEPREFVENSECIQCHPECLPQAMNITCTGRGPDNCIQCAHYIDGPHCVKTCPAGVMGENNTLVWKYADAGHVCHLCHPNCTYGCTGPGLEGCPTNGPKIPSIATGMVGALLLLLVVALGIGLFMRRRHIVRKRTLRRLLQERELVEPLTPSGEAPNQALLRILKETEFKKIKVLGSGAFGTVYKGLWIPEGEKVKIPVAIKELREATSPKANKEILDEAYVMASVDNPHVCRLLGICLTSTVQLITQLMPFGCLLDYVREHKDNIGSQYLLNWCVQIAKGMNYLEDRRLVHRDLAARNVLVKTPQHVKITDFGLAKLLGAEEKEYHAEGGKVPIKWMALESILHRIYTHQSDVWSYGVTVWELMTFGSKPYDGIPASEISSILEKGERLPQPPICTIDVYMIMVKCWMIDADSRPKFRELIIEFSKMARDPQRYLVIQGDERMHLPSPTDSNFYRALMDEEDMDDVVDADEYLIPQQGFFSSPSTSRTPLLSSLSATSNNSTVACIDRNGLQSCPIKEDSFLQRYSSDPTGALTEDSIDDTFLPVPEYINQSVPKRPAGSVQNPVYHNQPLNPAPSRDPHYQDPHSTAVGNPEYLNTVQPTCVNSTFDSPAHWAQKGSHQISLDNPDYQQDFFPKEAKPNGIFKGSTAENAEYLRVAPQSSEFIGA

Row | Compound | IC50 (A431 [1]) [µM] | IC50 (HTB161) [µg/mL] | IC50 (A27805) [µg/mL] | IC50 (A2780DDP) [µg/mL] | IC50 (MIP) [µg/mL] | IC50 (SW620) [µg/mL] | IC50 (COLO205) [µg/mL] | IC50 (CX1) [µg/mL] | IC50 (CACO2) [µg/mL] | IC50 (HCT15) [µg/mL] | IC50 (LS174T) [µg/mL] | IC50 (SW948) [µg/mL] | IC50 (CCL228) [µg/mL] | IC50 (MCF7) [µg/mL] | IC50 (B7474) [µg/mL] | IC50 (T47D) [µg/mL] | IC50 (LX1) [µg/mL] | IC50 (A549) [µg/mL] | IC50 (LOX) [µg/mL] | IC50 (A431 [2]) [µg/mL] | further results
1 | COc1cc2ncc(C#N)c(Nc3cccc(C#N)c3)c2cc1OC [Example 45, 4-[(3-Cyanophenyl)amino]-6,7-dimethoxy-3-quinolinecarbonitrile] | 0.15 | 4.21 (≈ 12.8 µM) | 8.66 (≈ 26.2 µM) | 39.3 (≈ 119 µM) | > 100 | > 100 | > 100 | 89.7 (≈ 271 µM) | 0.911 (≈ 2.76 µM) | 79.7 (≈ 241 µM) | 87.1 (≈ 264 µM) | > 100 | > 100 | 57.8 (≈ 175 µM) | 86.8 (≈ 263 µM) | 30 (≈ 90.9 µM) | 100 (≈ 303 µM) | 100 (≈ 303 µM) | 9.06 (≈ 27.4 µM) | 2.61 (≈ 7.9 µM) | IC50 (NEC): 72.1 µg/mL (≈ 218 µM); IC50 (DU145): 8.94 µg/mL (≈ 27.1 µM); IC50 (PC3): 88.9 µg/mL (≈ 269 µM); IC50 (LNCAP): 57.8 µg/mL (≈ 175 µM); IC50 (HL60): > 100 µg/mL; IC50 (CCRF-CFM): > 100 µg/mL; IC50 (SKBR3): 60.5 µg/mL (≈ 183 µM); IC50 [3]: > 100 µM; IC50 [4]: 1.67 µM
2 | N#Cc1cnc2ccc(N)cc2c1Nc1cccc(Br)c1 [Example 14, 6-Amino-4-[(3-bromophenyl)amino]-3-quinolinecarbonitrile] | 0.1 | 1.79 (≈ 5.29 µM) | 3.59 (≈ 10.6 µM) | 5.92 (≈ 17.5 µM) | 6.19 (≈ 18.2 µM) | 88.8 (≈ 262 µM) | > 100 | 8.9 (≈ 26.2 µM) | 0.989 (≈ 2.91 µM) | 6.63 (≈ 19.5 µM) | 39.3 (≈ 116 µM) | > 100 | 39.4 (≈ 116 µM) | 80.7 (≈ 238 µM) | 20.6 (≈ 60.6 µM) | 7.39 (≈ 21.8 µM) | 69.6 (≈ 205 µM) | 7.68 (≈ 22.7 µM) | 2.81 (≈ 8.29 µM) | 1.5 (≈ 4.42 µM) | IC50 (NEC): 8.28 µg/mL (≈ 24.4 µM); IC50 (DU145): 0.91 µg/mL (≈ 2.68 µM); IC50 (PC3): 41.2 µg/mL (≈ 122 µM); IC50 (LNCAP): 8.98 µg/mL (≈ 26.5 µM); IC50 (HL60): 4.04 µg/mL (≈ 11.9 µM); IC50 (CCRF-CFM): 7.6 µg/mL (≈ 22.4 µM); IC50 (SKBR3): 43.6 µg/mL (≈ 129 µM); IC50 [3]: > 100 µM
3 | N#Cc1cnc2ccc([N+](=O)[O-])cc2c1Nc1cccc(Br)c1 [Example 13, 4-[(3-Bromophenyl)amino]-6-nitro-3-quinolinecarbonitrile] | 50 | 97.1 (≈ 263 µM) | 9.94 (≈ 26.9 µM) | 57 (≈ 154 µM) | 7.8 (≈ 21.1 µM) | 100 (≈ 271 µM) | 45.8 (≈ 124 µM) | > 100 | 31.5 (≈ 85.4 µM) | 100 (≈ 271 µM) | 94 (≈ 255 µM) | > 100 | > 100 | 65 (≈ 176 µM) | 98.8 (≈ 268 µM) | 47.7 (≈ 129 µM) | > 100 | > 100 | > 100 | 91 (≈ 246 µM) | IC50 (NEC): > 100 µg/mL; IC50 (DU145): 65.8 µg/mL (≈ 178 µM); IC50 (PC3): > 100 µg/mL; IC50 (LNCAP): > 100 µg/mL; IC50 (HL60): 70.2 µg/mL (≈ 190 µM); IC50 (CCRF-CFM): > 100 µg/mL; IC50 (SKBR3): 100 µg/mL (≈ 271 µM); IC50 [3]: > 100 µM
